Reference: patent US4835157A, “Thieno- and furopyrimidine-2,4-dione piperidine derivatives as serotonin antagonists and alpha adrenergic blocking agents” (Ortho Pharmaceutical Corporation, priority 1988, dated 1989)
pIC50: −log10 of the molar value. Like-named read-outs stand apart in the source and are kept apart here.

What was measured:
[1] = tested on: alpha1 adrenergic receptor; assay: Alpha1 Blockade in vivo (inhibition of phenylephrine pressor response); set-up: species or system spontaneously hypertensive rats (SHR); settings: anesthetized, vagotomized SHR; i.v.
Method: The potency of these compounds as alpha1 adrenergic antagonists was determined using the following procedure: adult male spontaneously hypertensive rats (SHR) were anesthetized and bilaterally vagotomized. A carotid artery and jugular vein were cannulated for monitoring mean arterial blood pressure and drug administration, respectively. The percent inhibition of alpha1 adrenergic receptor activation was quantified by measuring pressor responses to phenylephrine before and after antagonist treatment. […] Compounds were tested to the limits of their solubility for intravenous administration.

5HT2 [2] = target: T1, 5HT2 (Rattus norvegicus, UniProt P14842); assay: 5HT2 Blockade in vivo (antagonism of 5HT induced pressor responses); set-up: Spontaneously hypertensive rats were anesthetized with sodium pentobarbital; from tissue; host or cells: whole animal: anesthetized spontaneously hypertensive rats (vasculature); species or system spontaneously hypertensive rats; settings: for ED50: rat, iv, read-out: 5-HT-Induced Pressor Response ED50
Method: Antagonism of 5HT induced pressor responses was used to assess 5HT2 blockade in vivo. Spontaneously hypertensive rats were anesthetized with sodium pentobarbital (50 mg/kg, i.p.). The right carotid artery and vein were cannulated for pressure recording and drug injection, respectively. The trachea was cannulated, the rat placed on a respirator and ventilated with room air at 50-60 breaths/minute. Rats were pretreated with prazosin hydrochloride (1 mg/kg, i.v., blous) and pentolinium tartrate (5 mg/kg, i.v., bolus). After 10 minutes equilibration, the rat was challenged with 5HT (100 μg/kg) which elevates mean arterial pressure (MAP) 60-100 mmHg; non-responsive rats were discarded.
After a baseline had been reestablished, bolus injections of 5HT (100 μg/kg, i.v.) were given and the MAP responses were evaluated both pre- and post-drug administration. 5HT challenges were repeated 10 minutes after each dose of antagonist. Up to three cumulative doses of the antagonist were given to a single animal.

5HT2 [3] = target: T1, 5HT2; assay: Brain Serotonin (5-HT2) Radioreceptor Assay (3H-ketanserin displacement, rat frontal cortex membranes); type: binding; set-up: dissected from brains obtained from female rats; from tissue; host or cells: frontal cortex of female rats (about 150 g), membrane fragments; settings: 15 min at 37° C
Method: Brain Serotonin (5-HT2) Radioreceptor Assay
The test objects of this Example were rat frontal cortex membranes. Mebrane fragments were prepared from the frontal cortex dissected from brains obtained from female rats (≈150 g). […] Compound bound to the receptor site was separated from the remaining unbound compound by vacuum filtration. […] Specific binding was determined by the difference between total counts bound and counts bound in the presence of 10^-6 M methysergide.

serotonin receptors = assay: Inhibition of 5-HTP-Induced Head Twitching; type: in vivo; settings: male CD1 mice; for Inhibit. of 5-HTP-Head Twitch ED50: 5-HTP 160 mg/kg i.v. after one hour; for Inhibit. of 5-HTP-Head Twitch (result in words): @ 10 (mg/kg, p.o.)
Method: Inhibition of 5-HTP-Induced Head Twitching
This test detects compounds with antagonistic activity of serotonin receptors in vivo, and is a modified procedure of Corne, Pickering and Warner, Brit. J. Pharmacol. 20, 106 (1963). Groups of male CD1 mice were fasted overnight but allowed water ad libitum. They were deprived of water during the course of the experiment. The mice were weighed and treated orally or parenterally with the test compound in a dose volume of 10 ml/kg. Doses of test substance were calculated based upon the active compound. Substances for oral administration were dissolved or suspended in a 0.5% aqueous methylcellulose (15 centipoises) vehicle containing 4 ml of Tween 80/l.
A dose of 160 mg/kg of L-5-hydroxytryptophan (5-HTP) was administered i.v. in a dose volume of 5 ml/kg after one hour. The test mouse was restrained in a rodent restrainer that allowed the tail to extend out the back. The tail was then placed in tepid (but not scalding) water for approximately 10 seconds to soften the skin and dilate the tail vein. A 1 ml syringe and 25 gauge (5/8 inch) needle was used to administer the 5-HTP solution into one of the lateral tail veins.
A timer was started after dosing with 5-HTP to the first animal of the test group. […] A head twitch involves the head, neck and ears and has the appearance of an exaggerated pinal reflex. The number of head twitches for each individual vehicle-treated mouse were recorded to establish a historical baseline.
The active compounds in the test block the twitch response (the response rated all or none).

5HT1A receptor = target: T2, 5HT1A receptor (Rattus norvegicus, UniProt P19327); assay: Brain Serotonin (5HT1A) radioreceptor Assay (3H-8-OH DPAT displacement, rat frontal cortex membranes); type: binding; settings: for pIC50: rat frontal cortex membranes, pH 7.4, read-out: Brain 5-HT1 Receptor IC50
T2 construct: Membrane fragments were prepared from prefrontal cortex; from tissue; host or cells: prefrontal/frontal cortex of female rats (about 150 g), membrane fragments
T2 sequence (P19327 1-422): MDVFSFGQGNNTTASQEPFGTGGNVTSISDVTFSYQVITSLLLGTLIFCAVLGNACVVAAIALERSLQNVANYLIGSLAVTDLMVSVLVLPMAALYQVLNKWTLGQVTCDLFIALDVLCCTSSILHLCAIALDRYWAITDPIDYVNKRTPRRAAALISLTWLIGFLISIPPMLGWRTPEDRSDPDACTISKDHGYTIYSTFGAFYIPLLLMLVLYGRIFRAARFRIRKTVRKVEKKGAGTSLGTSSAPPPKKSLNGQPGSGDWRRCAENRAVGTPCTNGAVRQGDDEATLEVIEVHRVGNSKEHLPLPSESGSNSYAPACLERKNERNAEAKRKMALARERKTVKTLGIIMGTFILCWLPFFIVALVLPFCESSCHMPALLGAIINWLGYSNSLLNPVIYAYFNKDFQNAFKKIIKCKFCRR
Method: Brain Serotonin (5HT1A) radioreceptor Assay
The text objects of this procedure were rat frontal cortex membranes. Membrane fragments were prepared from prefrontal cortex disected from brains obtained from female rats (≈150 g). The 5HT1A sites were labeled with ^3 H-8-OH dipropylaminotetralin (8-OH-DPAT). Membrane fragments, ^3 H-8-OH DPAT, TRIS buffer (pH 7.4) and unlabeled compound were incubated for 10 minutes at 37° C. and then for 10 minutes at 4° C. Separation of bound from unbound ^3 H-8-OH DPAT was performed by vacuum filtration on a glass fiber disc. The ability of a compound to compete with ^3 H-8-OH DPAT for binding sites is a measure of the affinity of the compound for the 5HT1A receptor. Specific binding was determined by the difference between total counts bound and the counts bound in the presence of […] 5-hydroxytryptamine.

[4] = tested on: Serotonin-Induced Smooth Muscle Contractions (rabbit thoracic aorta); assay: Inhibition of Serotonin-Induced Smooth Muscle Contractions (isolated thoracic aorta strips); type: cell-based; settings: Oryctolagus cuniculus, 10 min, concentration shifting the serotonin dose curve 10x to the right, 10 min preincubation, read-out: 5-HT-Induced Smooth Muscle Contraction DR10
Method: Inhibition of Serotonin-Induced Smooth Muscle Contractions
The test objects of this Example were canines and rabbits. Rabbits were sacrificed by T-61 injection and the thoracic aorta was removed immediately. The aorta was placed in warmed, oxygenated Krebs-Henseleit buffer. After the tissue was cleaned, a 2-3 mm wide strip was cut helically from each aorta. A strip of approximately 5 cm was suspended in Krebs-Henseleit buffer at 37° C. in a 25 ml tissue bath and the tissues equilibrated at an initial resting tension of 4 g for 90-120 minutes. An initial serotonin dose curve, 0.01-10 μM was then done on each tissue, followed by a 60 minute washout and reequilibration. The test drug was then added for a 10 minute preincubation and another serotonin dose curve was done using 0.01-100 μM.
Results are expressed as DR10 values. This is the concentration of the compound required to shift the serotonin dose curve 10x to the right, i.e., the concentration of antagonist at which the concentration of serotonin required for 50% maximal contraction is increased ten-fold.

[5] = tested on: serotonin-induced platelet aggregation; assay: Platelet Aggregation Assay (serotonin-induced); type: cell-based; settings: Platelet; human plasma, serotonin 5 μM
Method: Platelet Aggegation Assay
Human blood was collected into tubes containing sodium citrate. The plasma was separated by centrifugation and was used as the source of platelets. Serotonin (5 μM) was used as the agonist to induce platelet aggregation. A control aggregation curve (as measured by the decrease in absorbance in transmitted light) was obtained in the presence of serotonin and in the absence of test compound. The test compound was added to an identical sample in a cuvette for one minute before addition of serotonin to yield the experimental curve.

[6] = @ 1 μM, 3H-8-OH DPAT, read-out: Brain 5-HT1 Receptor % displaced (% inhibition)

T1 sequence (P14842 whole entry): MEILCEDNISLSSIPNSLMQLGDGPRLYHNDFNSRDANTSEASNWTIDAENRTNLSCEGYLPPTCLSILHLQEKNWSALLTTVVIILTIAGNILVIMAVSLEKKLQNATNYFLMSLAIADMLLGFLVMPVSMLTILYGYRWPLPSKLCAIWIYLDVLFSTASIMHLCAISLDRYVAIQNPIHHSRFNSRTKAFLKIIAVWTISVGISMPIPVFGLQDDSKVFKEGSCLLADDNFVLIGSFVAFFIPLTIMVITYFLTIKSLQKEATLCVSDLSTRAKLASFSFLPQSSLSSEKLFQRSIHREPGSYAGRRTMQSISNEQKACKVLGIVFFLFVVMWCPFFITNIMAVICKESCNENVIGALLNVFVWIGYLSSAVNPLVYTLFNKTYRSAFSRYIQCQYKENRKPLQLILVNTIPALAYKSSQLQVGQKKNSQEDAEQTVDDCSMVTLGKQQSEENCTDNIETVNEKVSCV

| SMILES | ED50 (5HT2 [2]) | pIC50 (5HT2 [3]) | Inhibit. of 5-HTP-Head Twitch ED50 (serotonin receptors) | IC (10-fold shift) [4] | pIC50 [5] | inhibition at 1 µM (5HT1A receptor; [6]) | Inhibit. of 5-HTP-Head Twitch (result in words) (serotonin receptors) | further results |
| --- | --- | --- | --- | --- | --- | --- | --- | --- |
| O=C(c1ccc(F)cc1)C1CCN(CCn2c(=O)[nH]c3sccc3c2=O)CC1 [Example 2, 3-[2-[4-(4-Fluorobenzoyl)piperidin-1-yl]ethyl]thieno[2,3-d]pyrimidine-2,4-dione] | 0.016 mg/kg | 8.80 | 0.26 mg/kg, p.o. | – | – | – | – | Phenylephrine-Induced Pressor Response ED50 [1]: < 3.0 mg/kg; inhibition at 10 µM (5HT1A receptor; @ 10 μM, 3H-8-OH DPAT, read-out: Brain 5-HT1 Receptor % displaced (% inhibition)): 24% |
| CC(C)(C)C(=O)n1c(=O)n(CCN2CCC(=C(c3ccc(F)cc3)c3ccc(F)cc3)CC2)c(=O)c2cscc21 [Example 7, 3-[2-[4-[Bis(4-fluorophenyl)methylene]piperidin-1-yl]ethyl]-1-(2,2-dimethyl-1-oxopropyl)thieno[3,4-d]pyrimidine-2,4-dione] | 0.038 mg/kg | 9.51 | – | 0.02 µM | 5.60 | 3% | – | – |
| O=C(c1ccccc1)n1c(=O)n(CCN2CCC(=C(c3ccc(F)cc3)c3ccc(F)cc3)CC2)c(=O)c2cscc21 [Example 8] | 0.038 mg/kg | 6.70 | – | 0.01 µM | – | 0% | Inact. | – |
| O=C(c1ccc(F)cc1)C1CCN(CCn2c(=O)c3cscc3n(C(=O)c3ccccc3)c2=O)CC1 [Example 12, 1-Benzoyl-3-[2-[4-(4-fluorobenzoyl)piperidin-1-yl]ethyl]thieno[3,4-d]pyrimidine-2,4-dione] | – | 8.07 | 1.74 mg/kg, p.o. | – | 7.00 | 24% | – | 5-HT-Induced Pressor Response, % attenuation (5HT2 [2]; @ 0.3 (mg/kg), anesthetized SHR, 5HT 100 μg/kg i.v.): 44% |
| CC(C)(C)C(=O)n1c(=O)n(CCN2CCC(C(=O)c3ccc(F)cc3)CC2)c(=O)c2cscc21 [Example 13] | – | 7.82 | 1.98 mg/kg, p.o. | 0.03 µM | – | 31% | – | – |
| CCCCn1c(=O)n(CCN2CCC(C(=O)c3ccc(F)cc3)CC2)c(=O)c2cscc21 [Example 15, 1-Butyl-3-[2-[4-(4-fluorobenzoyl)piperidin-1-yl]ethyl]thieno[3,4-d]pyrimidine-2,4-dione 1/4 Hydrate] | – | 6.35 | 1-10 mg/kg, p.o. | – | – | 0% | – | – |
| Cc1scc2[nH]c(=O)n(CCN3CCC(C(=O)c4ccc(F)cc4)CC3)c(=O)c12 [Example 16, 3-[2-[4-(4-Fluorobenzoyl)piperidin-1-yl]ethyl]-5-methylthieno[3,4-d]pyrimidine-2,4-dione] | 0.119 mg/kg | 8.15 | – | 0.019 µM | 6.42 | 2% | – | – |
| Cc1scc2[nH]c(=O)n(CCN3CCC(=C(c4ccc(F)cc4)c4ccc(F)cc4)CC3)c(=O)c12 [Example 17] | – | 7.49 | – | – | – | 0% | Inact. | – |
| CCCCn1c(=O)n(CCN2CCC(C(=O)c3ccc(F)cc3)CC2)c(=O)c2ccsc21 [Example 18, 1-Butyl-3-[2-[4-(4-fluorobenzoyl)piperidin-1-yl]ethyl]thieno[2,3-d]pyrimidine-2,4-dione] | – | 7.64 | – | – | – | 17% | Inact. | – |
| O=C(c1ccc(F)cc1)C1CCN(CCCCn2c(=O)[nH]c3cscc3c2=O)CC1 [Example 19, 3-[4-[4-(4-Fluorobenzoyl)piperidin-1-yl]butyl]thieno[3,4-d]pyrimidine-2,4-dione] | – | 7.90 | 1-10 mg/kg, p.o. | – | – | – | – | pIC50 (5HT1A receptor; 3H-8-OH DPAT): 6.68 |
| O=c1[nH]c2cscc2c(=O)n1CCCCCN1CCC(=C(c2ccc(F)cc2)c2ccc(F)cc2)CC1 [Example 20, 3-[5-[4-[Bis(4-fluorophenyl)methylene]piperidin-1-yl]pentyl]thieno[3,4-d]pyrimidine-2,4-dione] | – | 6.19 | – | 0.085 µM | 6.52 | – | – | pIC50 (5HT1A receptor; 3H-8-OH DPAT): 6.57 |
| Cn1c(=O)n(CCN2CCC(=C(c3ccc(F)cc3)c3ccc(F)cc3)CC2)c(=O)c2cscc21 [Example 23] | > 0.3 mg/kg | 8.74 | – | 0.066 µM | 4.77 | – | – | pIC50 (5HT1A receptor; 3H-8-OH DPAT): 5.52 |
| O=c1[nH]c2cscc2c(=O)n1CCN1CC=C(c2ccccc2)CC1 [Example 24, 3-[2-[4-Phenyl-1,2,3,6-tetrahydropyridin-1-yl]ethyl]thieno[3,4-dy]pyrimidine-2,4-dione] | – | 7.54 | – | – | – | – | Inact. | inhibition at 1 µM (5HT1A receptor; read-out: Brain 5-HT1 Receptor % displaced (% inhibition)): 53% |
